Reference: the supplement of paper PMC10307832

Tests used:
Assay in all cases: relative viability (nuclei count vs DMSO), 5 days (fraction); higher = more cells survive
HCC-44 = system: HCC-44
Method in brief: (§1)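 Lung cancer cell lines, seeded in 1536-well plates, were treated the following day by pin tool with a single drug or with five library-drug doses (not always all listed) in √10 steps on top of a fixed anchor-drug dose. Cells were fixed and nuclei stained in one step after 5 days, and nuclei were counted. Relative viability is the nuclei count for treated wells divided by that for vehicle wells, reported as medians of duplicate plates.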

HCC-827 = system: HCC-827
Method in brief: as §1

NCI-H650 = system: NCI-H650
Method in brief: as §1

EKVX = system: EKVX
Method in brief: as §1

SW 1573 = system: SW 1573
Method in brief: as §1

NCI-H1975 = system: NCI-H1975
Method in brief: as §1

NCI-H1666 = system: NCI-H1666
Method in brief: as §1

H3255 = system: H3255
Method in brief: as §1

NCI-H2085 = system: NCI-H2085
Method in brief: as §1

COR-L 105 = system: COR-L 105
Method in brief: as §1

LU99A = system: LU99A
Method in brief: as §1

BEN = system: BEN
Method in brief: as §1

NCI-H2170 = system: NCI-H2170
Method in brief: as §1

201T = system: 201T
Method in brief: as §1

NCI-H1437 = system: NCI-H1437
Method in brief: as §1

PC-3 [JPC-3] = system: PC-3 [JPC-3]
Method in brief: as §1

NCI-H2087 = system: NCI-H2087
Method in brief: as §1

LCLC-97TM1 = system: LCLC-97TM1
Method in brief: as §1

EPLC-272H = system: EPLC-272H
Method in brief: as §1

NCI-H647 = system: NCI-H647
Method in brief: as §1

LOU-NH91 = system: LOU-NH91
Method in brief: as §1

SMILES: COc1nc(C)cnc1NS(=O)(=O)c1cccnc1-c1ccc(-c2nnco2)cc1 [Zibotentan] + C[C@@H](Oc1cc(-c2cnn(C3CCNCC3)c2)cnc1N)c1c(Cl)ccc(F)c1Cl [Crizotinib] (partner 1 µM)
- relative viability (HCC-44; first compound 0.08 µM): 0.777
- relative viability (HCC-44; first compound 0.253 µM): 0.761
- relative viability (HCC-44; first compound 0.8 µM): 0.872
- relative viability (HCC-44; first compound 2.53 µM): 0.772
- relative viability (HCC-827; first compound 0.08 µM): 0.944
- relative viability (HCC-827; first compound 0.253 µM): 0.955
- relative viability (HCC-827; first compound 0.8 µM): 0.946
- relative viability (HCC-827; first compound 2.53 µM): 0.987
- relative viability (NCI-H650; first compound 0.08 µM): 0.856
- relative viability (NCI-H650; first compound 0.253 µM): 0.661
- relative viability (NCI-H650; first compound 0.8 µM): 0.705
- relative viability (NCI-H650; first compound 2.53 µM): 0.792
- relative viability (EKVX; first compound 0.08 µM): 0.875
- relative viability (EKVX; first compound 0.253 µM): 0.733
- relative viability (EKVX; first compound 0.8 µM): 0.848
- relative viability (EKVX; first compound 2.53 µM): 1.03
- relative viability (SW 1573; first compound 0.08 µM): 0.923
- relative viability (SW 1573; first compound 0.253 µM): 0.745
- relative viability (SW 1573; first compound 0.8 µM): 0.822
- relative viability (SW 1573; first compound 2.53 µM): 0.856
- relative viability (NCI-H1975; first compound 0.08 µM): 1.04
- relative viability (NCI-H1975; first compound 0.253 µM): 0.871
- relative viability (NCI-H1975; first compound 0.8 µM): 0.837
- relative viability (NCI-H1975; first compound 2.53 µM): 0.967
- relative viability (NCI-H1666; first compound 0.08 µM): 1.01
- relative viability (NCI-H1666; first compound 0.253 µM): 0.856
- relative viability (NCI-H1666; first compound 0.8 µM): 1.15
- relative viability (NCI-H1666; first compound 2.53 µM): 0.996
- relative viability (H3255; first compound 0.08 µM): 0.846
- relative viability (H3255; first compound 0.253 µM): 0.841
- relative viability (H3255; first compound 0.8 µM): 0.975
- relative viability (H3255; first compound 2.53 µM): 0.963
- relative viability (NCI-H2085; first compound 0.08 µM): 1.03
- relative viability (NCI-H2085; first compound 0.253 µM): 0.815
- relative viability (NCI-H2085; first compound 0.8 µM): 0.938
- relative viability (NCI-H2085; first compound 2.53 µM): 0.925
- relative viability (COR-L 105; first compound 0.08 µM): 0.826
- relative viability (COR-L 105; first compound 0.253 µM): 0.665
- relative viability (COR-L 105; first compound 0.8 µM): 0.901
- relative viability (COR-L 105; first compound 2.53 µM): 1.07
- relative viability (LU99A; first compound 0.08 µM): 0.537
- relative viability (LU99A; first compound 0.253 µM): 0.527
- relative viability (LU99A; first compound 0.8 µM): 0.645
- relative viability (LU99A; first compound 2.53 µM): 0.617
- relative viability (BEN; first compound 0.08 µM): 0.803
- relative viability (BEN; first compound 0.253 µM): 0.724
- relative viability (BEN; first compound 0.8 µM): 0.989
- relative viability (BEN; first compound 2.53 µM): 1.02
- relative viability (NCI-H2170; first compound 0.08 µM): 1.29
- relative viability (NCI-H2170; first compound 0.253 µM): 1.15
- relative viability (NCI-H2170; first compound 0.8 µM): 1.2
- relative viability (NCI-H2170; first compound 2.53 µM): 1.2
- relative viability (201T; first compound 0.08 µM): 1.03
- relative viability (201T; first compound 0.253 µM): 0.992
- relative viability (201T; first compound 0.8 µM): 1.04
- relative viability (201T; first compound 2.53 µM): 1.07
- relative viability (NCI-H1437; first compound 0.08 µM): 0.924
- relative viability (NCI-H1437; first compound 0.253 µM): 0.853
- relative viability (NCI-H1437; first compound 0.8 µM): 0.977
- relative viability (NCI-H1437; first compound 2.53 µM): 0.989
- relative viability (PC-3 [JPC-3]; first compound 0.08 µM): 0.951
- relative viability (PC-3 [JPC-3]; first compound 0.253 µM): 0.967
- relative viability (PC-3 [JPC-3]; first compound 0.8 µM): 0.955
- relative viability (PC-3 [JPC-3]; first compound 2.53 µM): 0.966
- relative viability (NCI-H2087; first compound 0.08 µM): 0.881
- relative viability (NCI-H2087; first compound 0.253 µM): 1.07
- relative viability (NCI-H2087; first compound 0.8 µM): 0.984
- relative viability (NCI-H2087; first compound 2.53 µM): 0.928
- relative viability (LCLC-97TM1; first compound 0.08 µM): 0.272
- relative viability (LCLC-97TM1; first compound 0.253 µM): 0.374
- relative viability (LCLC-97TM1; first compound 0.8 µM): 0.351
- relative viability (LCLC-97TM1; first compound 2.53 µM): 0.435
- relative viability (EPLC-272H; first compound 0.08 µM): 0.841
- relative viability (EPLC-272H; first compound 0.253 µM): 0.841
- relative viability (EPLC-272H; first compound 0.8 µM): 1.38
- relative viability (EPLC-272H; first compound 2.53 µM): 0.951
- relative viability (NCI-H647; first compound 0.08 µM): 1.04
- relative viability (NCI-H647; first compound 0.253 µM): 1.06
- relative viability (NCI-H647; first compound 0.8 µM): 1.18
- relative viability (NCI-H647; first compound 2.53 µM): 1.23
- relative viability (LOU-NH91; first compound 0.08 µM): 0.742
- relative viability (LOU-NH91; first compound 0.253 µM): 0.717
- relative viability (LOU-NH91; first compound 0.8 µM): 0.758
- relative viability (LOU-NH91; first compound 2.53 µM): 0.729
